According to patent publication US11684306B2, “Stable water isotope labeling and magnetic resonance imaging for visualization of the presence of and prediction of the likelihood of occurence of rapidly dividing cells” (THE UNITED STATES OF AMERICA, AS REPRESENTED BY THE …, priority 2016, dated 2023):

Assays:
Type in all cases: in vivo
[1] = Total body water (TBW) deuterium enrichment in people
[2] = Total body water (TBW) deuterium enrichment in mice
Excerpt: In one aspect, deuterium labeling was achieved by intraperitoneal injection of 100% ^2H2O with NaCl added to make this fluid isotonic, then maintaining the achieved 5% ^2H enrichment in total body water (TBW) by providing 8% ^2H2O in drinking water to mice. Deuterium within total body water diffuses rapidly into all tissues and is excreted unchanged by the kidneys. Therefore, according to various embodiments, deuterium labeled fluids may be provided to an animal or human subject via injected and/or ingested fluid yielding a deuterium concentration of about 5% TBW. […] Higher TBW enrichments (up to 20% TBW ^2H) may improve sensitivity of dMRI detection. Such enrichments should be safe, as deuterium is non-radioactive, tasteless, colorless and without known side effects at these doses.
FIG. 9 is an illustration for one embodiment of a scheme 900 for labeling and imaging rapidly dividing cells. As shown, the method begins with total body irradiation (TBI) conditioning performed one day prior to the infusion of a transplant graft (day −1), indicated as 902. In the embodiment shown, the bone marrow transplant (BMT) graft, containing bone marrow stem cells and T cells from the donor spleen, is infused on day 0, indicated as 904. […]
For measuring ^2H2O water levels in TBW (e.g. urine), we developed a simple and quantitative headspace-GC-NCI-MS method (publication pending). […]

[3] = Safety of deuterium enrichment in total body water

[2H]O[2H] [deuterated water]
time for TBW deuterium enrichment to return to baseline (0.015%) after supplementation is discontinued [1]: ~14 days | time for TBW deuterium enrichment to return to baseline (0.015%) after supplementation is discontinued [2]: approximately 7 days | toxicity ([3]; doses up to 20% in total body water): non-toxic | safety of higher TBW enrichment ([3]; enrichments up to and including approximately 20% TBW): safely achieved | effect on rates of DNA synthesis ([3]; in vivo): does not affect rates of DNA synthesis
